Assay results as given in patent US20120039844A1, “COMPOSITION AND USE OF N-ALPHA-METHYLHISTAMINE DIHYDROCHLORIDE FOR THE REDUCTION OF OXYGEN RADICAL FORMATION” (priority 2009, published 2012).

Columns and labels:
[1] = in the blood; cited from earlier work
B16 melanoma cells = experiment: i.v. injected B16 melanoma in mice (lung tumor weight, pulmonary metastatic foci); format: in vivo; conditions: for tumor weight (wet lung weight at day 14) vs control mice: 24 hours before tumor cell inoculation, FIG. 4
Experimental: The anti-tumor properties of N-α-MH on i.v. injected B16 melanoma cells in mice were evaluated. One of N-α-MH, HDC, and a positive control were administered to the mice 24 hours before tumor cell inoculation as described by Hellstrand et al., J. Immunol., vol. 145, pp 4365-4370. Macroscopically visible pulmonary metastatic foci were counted fourteen days after the tumor cell inoculation. The tumor weight is the wet weight at day 14 of lungs from mice injected with tumor cells on day 0 as described by Hellstrand et al., J. Immunol., vol. 145, pp 4365-4370.

H1 receptors = H1 receptors (Homo sapiens, UniProt P35367); conditions: cited from earlier work
Sequence of H1 receptors (P35367 whole entry): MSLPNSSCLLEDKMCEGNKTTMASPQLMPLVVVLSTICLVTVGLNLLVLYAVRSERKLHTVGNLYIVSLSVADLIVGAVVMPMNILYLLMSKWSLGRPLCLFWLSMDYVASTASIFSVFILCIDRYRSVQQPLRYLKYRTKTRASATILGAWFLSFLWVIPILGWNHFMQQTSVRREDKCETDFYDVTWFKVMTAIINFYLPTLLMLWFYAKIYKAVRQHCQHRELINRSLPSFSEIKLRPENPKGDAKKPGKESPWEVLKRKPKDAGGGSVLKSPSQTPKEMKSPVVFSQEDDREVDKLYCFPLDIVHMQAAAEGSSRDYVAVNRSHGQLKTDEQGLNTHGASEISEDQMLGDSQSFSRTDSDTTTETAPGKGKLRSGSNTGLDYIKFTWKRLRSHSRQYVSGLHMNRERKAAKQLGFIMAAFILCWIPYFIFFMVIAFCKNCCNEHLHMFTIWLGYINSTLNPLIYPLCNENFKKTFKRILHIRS

NK cells [2] = experiment: CD69 expression on NK cells exposed to IL-2; format: cell-based; conditions: with human recombinant IL-2 50 U/ml, overnight; FIG. 3
Experimental: Three separate experiments were performed as described above with the addition of human recombinant IL-2 (50 U/ml) during the overnight incubation. The experiments were initiated with the aim at clarifying whether N-α-MH synergizes with IL-2 to activate NK cells in a fashion similar to HDC. The activation of NK cells by IL-2 was measured as the capacity of these cells to express the cell surface activation antigen CD69 (See, generally Hellstrand et al. JI 1994).

NK cells [3] = experiment: Protection of NK cells from apoptosis inflicted by mononuclear phagocytes; format: cell-based, human; conditions: FIG. 2
Experimental: The ability of N-α-MH to protect NK cells from apoptosis inflicted by mononuclear phagocytes was evaluated. Cells were prepared as described by Hellstrand et al., J. Immunol., vol. 153, pp 4940-7, and mixtures of mononuclear phagocytes and NK cells were incubated overnight with HDC or N-α-MH at indicated final concentrations in 96-well microplates. Thereafter, cells were recovered and NK cells were analyzed for apoptosis (forward and side scatter) as described in Betten et al., J. Clin. Invest. Vol. 108, pp 1221-8 (hereby incorporated by reference in its entirety). FIG. 2 plots the results of six similar experiments.

H2 receptor = H2 receptor (Homo sapiens, UniProt P25021); conditions: Saitoh et al., Gut 2002; cited from earlier work
Sequence of H2 receptor (P25021 whole entry): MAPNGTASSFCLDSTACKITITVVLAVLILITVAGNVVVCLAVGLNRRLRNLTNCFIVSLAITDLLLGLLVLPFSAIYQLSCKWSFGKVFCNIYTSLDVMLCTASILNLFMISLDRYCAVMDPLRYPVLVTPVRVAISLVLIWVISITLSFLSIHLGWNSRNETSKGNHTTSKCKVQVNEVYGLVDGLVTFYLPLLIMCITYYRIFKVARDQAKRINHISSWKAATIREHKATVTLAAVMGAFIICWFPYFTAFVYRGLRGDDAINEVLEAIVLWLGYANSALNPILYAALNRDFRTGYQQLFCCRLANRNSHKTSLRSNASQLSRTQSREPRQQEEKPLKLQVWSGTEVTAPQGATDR

[4] = system: human mononuclear phagocytes; experiment: fMLF-induced oxygen radical formation (respiratory burst) in mononuclear phagocytes; format: cell-based; conditions: FIG. 1

Row | SMILES | half life [1] | tumor weight (wet lung weight at day 14) vs control mice (B16 melanoma cells; 50 mg/kg) | activity at H1 receptors (H1 receptors) | potency relative to HDC in reducing tumor weight in vivo (B16 melanoma cells; 5 mg/kg N-α-MH equal to 50 mg/kg histamine) | tumor weight (wet lung weight at day 14) vs control mice (B16 melanoma cells; 5 mg/kg) | extent of tumor reduction (lung metastases) compared with HDC at 50 mg/kg (B16 melanoma cells; 5 mg/kg, 14 days after inoculation, FIG. 5) | number of melanoma lung metastases vs control mice (B16 melanoma cells; 50 mg/kg, 14 days after inoculation, FIG. 5) | potency relative to HDC in reducing melanoma metastasis in vivo (B16 melanoma cells; FIG. 5) | potency relative to HDC in reducing tumor formation in vivo (B16 melanoma cells; mouse, in vivo) | expression of CD69 on NK cells (NK cells [2]) | EC50 (NK cells [3]; Homo sapiens, overnight incubation with mononuclear phagocytes, six experiments, read-out: ED50 for protection of NK cells) [µM] | protection of NK cells from apoptosis, compared with HDC (NK cells [3]; in vitro) | potency in stimulating cAMP production via the H2 receptor, compared with histamine (H2 receptor) | inhibition of oxygen radical production ([4]; 5 min preincubation, then fMLF) | maximal response in terms of oxygen radical inhibition, compared with HDC ([4]; in vitro)
1 | Cl.Cl.NCCc1c[nH]cn1 [HDC, histamine dihydrochloride] | five | significantly reduced tumor weight |  |  |  |  |  |  |  |  |  |  |  |  | 
2 | CNCCc1c[nH]cn1 [N-α-MH, N-alpha-methyl-histamine] |  | significantly reduced tumor weight | little or no activity at H1 receptors | about 10 times | significantly reduced tumor weight | about equal | significantly less lung metastases than control mice | approximately 10 times | approximately 10 times | synergized with IL-2 to induce expression of CD69 on NK cells | 2.2 | equally potent and effective at protecting NK cells from apoptosis as HDC | significantly more potent than histamine | potent inhibitor of oxygen radical production | at least comparable to HDC
